According to patent US9937235B2, “Lipidated peptides as anti-obesity agents” (USTAV ORGANICKE CHEMIE A BIOCHEMIE AKADEMIE VED CR, V.V.I, priority 2012, dated 2018):
Where a SMILES comes first, the peptide text is derived from it. [ ]: non-standard residue; d: D form. The star is where a group is joined. Palmitoyl = CCCCCCCCCCCCCCCC(=O)*; Myristoyl = CCCCCCCCCCCCCC(=O)*; Nle = CCCC[C@H](N)C(=O)O; Dap = NC[C@H](N)C(=O)O

Assays:
[1] = system: MAPK/ERK1/2 signaling pathway in RC-4B/C cells; assay: MAPK/ERK1/2 signaling in RC-4B/C cells (Western blot); format: cell-based, rat; conditions: 10^−6 mol·l^−1, 5 minute incubation
fasted C57BL/6 mice = assay: Food intake in fasted mice after ICV administration; format: in vivo; conditions: 4 nmol/mouse; for % control: food intake vs saline
Summary of the method: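 Male C57BL/6 mice, food-deprived 17 h, received saline, PrRP or lipidated analogs either SC at 1-10 mg/kg or ICV into the third ventricle at 4 nmol/mouse.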

| SMILES | ERK signaling [1] | food intake (fasted C57BL/6 mice; 45 minutes) [g] | % control (fasted C57BL/6 mice; 45 minutes) [%] | food intake (fasted C57BL/6 mice; 300 minutes) [g] | % control (fasted C57BL/6 mice; 300 minutes) [%] |
| --- | --- | --- | --- | --- | --- |
| CCCCCCCCCCCCCC(=O)NC[C@H](N)C(=O)N[C@@H](CCCNC(=N)N)C(=O)N[C@@H](C)C(=O)N[C@@H](Cc1c[nH]cn1)C(=O)N[C@@H](CCC(N)=O)C(=O)N[C@@H](Cc1c[nH]cn1)C(=O)N[C@@H](CO)C(=O)N[C@@H](CCCC)C(=O)N[C@@H](CCC(=O)O)C(=O)N[C@H](C(=O)N[C@@H](CCCNC(=N)N)C(=O)N[C@H](C(=O)N1CCC[C@H]1C(=O)N[C@@H](CC(=O)O)C(=O)N[C@H](C(=O)N[C@@H](CC(N)=O)C(=O)N1CCC[C@H]1C(=O)N[C@@H](C)C(=O)N[C@@H](Cc1c[nH]c2ccccc12)C(=O)N[C@@H](Cc1ccc(O)cc1)C(=O)N[C@H](C(=O)NCC(=O)N[C@@H](CCCNC(=N)N)C(=O)NCC(=O)N[C@H](C(=O)N[C@@H](CCCNC(=N)N)C(=O)N1CCC[C@H]1C(=O)N[C@H](C(=O)NCC(=O)N[C@@H](CCCNC(=N)N)C(=O)N[C@@H](Cc1ccccc1)C(N)=O)C(C)C)[C@@H](C)CC)[C@@H](C)O)[C@@H](C)CC)[C@@H](C)O)[C@@H](C)O [Analog 5] (H-[Dap](Myristoyl)RAHQHS[Nle]ETRTPDINPAWYTGRGIRPVGRF-NH2) | agonist | 0.35 | 62 | 0.96 | 73 |
| CCCCCCCCCCCCCCCC(=O)NC[C@H](N)C(=O)N[C@@H](CCCNC(=N)N)C(=O)N[C@@H](C)C(=O)N[C@@H](Cc1c[nH]cn1)C(=O)N[C@@H](CCC(N)=O)C(=O)N[C@@H](Cc1c[nH]cn1)C(=O)N[C@@H](CO)C(=O)N[C@@H](CCCC)C(=O)N[C@@H](CCC(=O)O)C(=O)N[C@H](C(=O)N[C@@H](CCCNC(=N)N)C(=O)N[C@H](C(=O)N1CCC[C@H]1C(=O)N[C@@H](CC(=O)O)C(=O)N[C@H](C(=O)N[C@@H](CC(N)=O)C(=O)N1CCC[C@H]1C(=O)N[C@@H](C)C(=O)N[C@@H](Cc1c[nH]c2ccccc12)C(=O)N[C@@H](Cc1ccc(O)cc1)C(=O)N[C@H](C(=O)NCC(=O)N[C@@H](CCCNC(=N)N)C(=O)NCC(=O)N[C@H](C(=O)N[C@@H](CCCNC(=N)N)C(=O)N1CCC[C@H]1C(=O)N[C@H](C(=O)NCC(=O)N[C@@H](CCCNC(=N)N)C(=O)N[C@@H](Cc1ccccc1)C(N)=O)C(C)C)[C@@H](C)CC)[C@@H](C)O)[C@@H](C)CC)[C@@H](C)O)[C@@H](C)O [Analog 6] (H-[Dap](Palmitoyl)RAHQHS[Nle]ETRTPDINPAWYTGRGIRPVGRF-NH2) | agonist | 0.38 | 71 | 1.3 | 100 |
